# Laboratory results: patent US5916881A, “High trehalose content syrup” (Kabushiki Kaisha Hayashibara Seibutsu Kagaku Kenkyujo, priority 1996, dated 1999)
# Where two headings read alike, the source gives them in different places.
# Experiments:
# Type in all cases: physicochemical
# [1] = Influence of ambient temperature on the water solubility of trehalose (Experiment 1); conditions: for solubility thermodynamic: water, 5 °C, saturated solution
# Experimental: The water solubility of trehalose at ambient temperature was studied by placing in a glass beaker 10 parts by weight of water and 20 parts by weight of crystalline trehalose hydrate, allowing the solution to stand at 5, 10, 15, 20, 25, 30 or 40° C. while stirring, sampling the solution, filtering the sample, and measuring the trehalose content in the filtrate to determine the solubility of trehalose in 100 g water at each temperature, i.e., the amount (g) of trehalose, d.s.b., that dissolves in 100 g water to give a saturated solution at each temperature.
# [2] = Influence of the concentrations of trehalose and of mono-/diglucosyltrehalose on trehalose crystallization (Experiment 3); design: key to Formation of trehalose crystal: "+" means that it crystallized; "-" means that it did not
# Experimental: The trehalose crystallization inhibitory effect was experimented by dissolving trehalose under heating conditions in water in an amount of 1.5, 2.0, 2.5, 2.8 or 3.3-times the water solubility at 10° C., dissolving in the solution other oligosaccharides having a trehalose structure within their molecules in an amount of 10, 30 or 60% to the trehalose, d.s.b, and allowing the resultant solution to stand at a relatively-low temperature.
# Based on the results in Experiment 1, 1.5, 2.0, 2.5, 2.8 and 3.3-times the water solubility of trehalose in 100 parts by weight of water at 10° C. water corresponded to 83, 111, 138, 155 and 182 parts by weight of trehalose anhydride, d.s.b., respectively With this relationship, testing solutions with the composition as shown in Table 3 were prepared by dissolving under heating conditions in a respective glass beaker 100 parts by weight of water, trehalose in a prescribed part by weight, and either monoglucosyltrehalose, i.e., α-glucosyltrehalose or diglucosyltrehalose, i.e., α-maltosyltrehalose in a prescribed ratio, allowing the solution to stand in a thermostatic place kept at 5, 10 or 15° C. for checking the trehalose crystallization inhibitory effect.
# [3] = Trehalose crystallization inhibitory effect of coexisting saccharides in a trehalose syrup over the water solubility (Experiment 2); conditions: trehalose dissolved in an amount over the water solubility; summary of Table 2
# Experimental: Trehalose was dissolved by heating in water in an amount of 1.5-times the water solubility at 10° C., and the trehalose solution was allowed to stand at a relatively-cold place for checking the trehalose crystallization inhibitory effect by saccharides. […] With this relationship, testing solutions were prepared by dissolving by heating in 100 parts by weight of water in a respective glass beaker 83 parts by weight of trehalose, and a saccharide in an amount of 10% to the trehalose, i.e., 8.3 parts by weight of the saccharide selected from the group consisting of glucose, maltose, isomaltose, lactose, maltotriose, panose, maltotetraose, sorbitol, maltitol, maltotriitol, sucrose, raffinose, erlose, saccharides such as α-glucosyltrehalose or monoglucosyltrehalose, α-maltosyltrehalose or diglucosyltrehalose, and α-maltotriosyltrehalose or triglucosyltrehalose as disclosed in Japanese Patent Kokai No.143,876/95 by the present applicant; a saccharide such as α-isomaltosyl-α-glucoside or monoglucosyltrehalose as disclosed in Japanese Patent Kokai No.217,784/96 by the same applicant; and a saccharide such as α-maltosyl-α-maltoside or diglucosyltrehalose as disclosed in Japanese Patent Application No.167,486/94 by the same applicant. Each solution was allowed to stand in a thermostatic place kept at 5, 10 or 15° C. for one week, followed by macroscopically observing the presence of trehalose crystal for evaluating the trehalose crystallization inhibitory effect by the saccharides.
compound,measurement,setting,value
"OC[C@H]1O[C@H](O[C@H]2O[C@H](CO)[C@@H](O)[C@H](O)[C@H]2O)[C@H](O)[C@@H](O)[C@@H]1O [Trehalose, α, α-trehalose]",Water solubility (in words),"[1]; ambient temperature, summary of Table 1",relatively-low water solubility
same,solubility thermodynamic,"[1]; d.s.b., read-out: Amount of trehalose (g) dissolving in 100 g water",496 mg/mL
same,solubility thermodynamic,[1]; read-out: Trehalose concentration (%),332 mg/mL
"OC[C@H]1O[C@H](O[C@H]2O[C@H](CO)[C@@H](O[C@H]3O[C@H](CO)[C@@H](O)[C@H](O)[C@H]3O)[C@H](O)[C@H]2O)[C@H](O)[C@@H](O)[C@@H]1O [α-Glycosyltrehalose, α-glucosyltrehalose]",Trehalose crystallization inhibitory effect (in words),[2]; summary of Table 3,satisfactory trehalose crystallization inhibitory effect
same,Formation of trehalose crystal,"[2]; water 100, trehalose 83, coexisting saccharide 8.3 parts by weight, 5° C. (1.7-times solubility)",-
same,Formation of trehalose crystal,"[2]; water 100, trehalose 83, coexisting saccharide 8.3 parts by weight, 10° C. (1.5-times solubility)",-
same,Formation of trehalose crystal,"[2]; water 100, trehalose 83, coexisting saccharide 8.3 parts by weight, 15° C. (1.3-times solubility)",-
same,Formation of trehalose crystal,"[2]; water 100, trehalose 83, coexisting saccharide 25 parts by weight, 5° C. (1.7-times solubility)",-
same,Formation of trehalose crystal,"[2]; water 100, trehalose 83, coexisting saccharide 25 parts by weight, 10° C. (1.5-times solubility)",-
same,Formation of trehalose crystal,"[2]; water 100, trehalose 83, coexisting saccharide 25 parts by weight, 15° C. (1.3-times solubility)",-
same,Formation of trehalose crystal,"[2]; water 100, trehalose 83, coexisting saccharide 50 parts by weight, 5° C. (1.7-times solubility)",-
same,Formation of trehalose crystal,"[2]; water 100, trehalose 83, coexisting saccharide 50 parts by weight, 10° C. (1.5-times solubility)",-
same,Formation of trehalose crystal,"[2]; water 100, trehalose 83, coexisting saccharide 50 parts by weight, 15° C. (1.3-times solubility)",-
same,Formation of trehalose crystal,"[2]; water 100, trehalose 111, coexisting saccharide 11 parts by weight, 5° C. (2.2-times solubility)",+
same,Formation of trehalose crystal,"[2]; water 100, trehalose 111, coexisting saccharide 11 parts by weight, 10° C. (2.0-times solubility)",-
same,Formation of trehalose crystal,"[2]; water 100, trehalose 111, coexisting saccharide 11 parts by weight, 15° C. (1.8-times solubility)",-
same,Formation of trehalose crystal,"[2]; water 100, trehalose 111, coexisting saccharide 33 parts by weight, 5° C. (2.2-times solubility)",-
same,Formation of trehalose crystal,"[2]; water 100, trehalose 111, coexisting saccharide 33 parts by weight, 10° C. (2.0-times solubility)",-
same,Formation of trehalose crystal,"[2]; water 100, trehalose 111, coexisting saccharide 33 parts by weight, 15° C. (1.8-times solubility)",-
same,Formation of trehalose crystal,"[2]; water 100, trehalose 111, coexisting saccharide 66 parts by weight, 5° C. (2.2-times solubility)",-
same,Formation of trehalose crystal,"[2]; water 100, trehalose 111, coexisting saccharide 66 parts by weight, 10° C. (2.0-times solubility)",-
same,Formation of trehalose crystal,"[2]; water 100, trehalose 111, coexisting saccharide 66 parts by weight, 15° C. (1.8-times solubility)",-
same,Formation of trehalose crystal,"[2]; water 100, trehalose 138, coexisting saccharide 14 parts by weight, 5° C. (2.8-times solubility)",+
same,Formation of trehalose crystal,"[2]; water 100, trehalose 138, coexisting saccharide 14 parts by weight, 10° C. (2.5-times solubility)",+
same,Formation of trehalose crystal,"[2]; water 100, trehalose 138, coexisting saccharide 14 parts by weight, 15° C. (2.2-times solubility)",-
same,Formation of trehalose crystal,"[2]; water 100, trehalose 138, coexisting saccharide 42 parts by weight, 5° C. (2.8-times solubility)",+
same,Formation of trehalose crystal,"[2]; water 100, trehalose 138, coexisting saccharide 42 parts by weight, 10° C. (2.5-times solubility)",+
same,Formation of trehalose crystal,"[2]; water 100, trehalose 138, coexisting saccharide 42 parts by weight, 15° C. (2.2-times solubility)",-
same,Formation of trehalose crystal,"[2]; water 100, trehalose 138, coexisting saccharide 83 parts by weight, 5° C. (2.8-times solubility)",+
same,Formation of trehalose crystal,"[2]; water 100, trehalose 138, coexisting saccharide 83 parts by weight, 10° C. (2.5-times solubility)",+
same,Formation of trehalose crystal,"[2]; water 100, trehalose 138, coexisting saccharide 83 parts by weight, 15° C. (2.2-times solubility)",-
same,Formation of trehalose crystal,"[2]; water 100, trehalose 155, coexisting saccharide 16 parts by weight, 5° C. (3.1-times solubility)",+
same,Formation of trehalose crystal,"[2]; water 100, trehalose 155, coexisting saccharide 16 parts by weight, 10° C. (2.8-times solubility)",+
same,Formation of trehalose crystal,"[2]; water 100, trehalose 155, coexisting saccharide 16 parts by weight, 15° C. (2.5-times solubility)",+
same,Formation of trehalose crystal,"[2]; water 100, trehalose 155, coexisting saccharide 46 parts by weight, 5° C. (3.1-times solubility)",+
same,Formation of trehalose crystal,"[2]; water 100, trehalose 155, coexisting saccharide 46 parts by weight, 10° C. (2.8-times solubility)",+
same,Formation of trehalose crystal,"[2]; water 100, trehalose 155, coexisting saccharide 46 parts by weight, 15° C. (2.5-times solubility)",+
same,Formation of trehalose crystal,"[2]; water 100, trehalose 155, coexisting saccharide 93 parts by weight, 5° C. (3.1-times solubility)",+
same,Formation of trehalose crystal,"[2]; water 100, trehalose 155, coexisting saccharide 93 parts by weight, 10° C. (2.8-times solubility)",+
same,Formation of trehalose crystal,"[2]; water 100, trehalose 155, coexisting saccharide 93 parts by weight, 15° C. (2.5-times solubility)",+
same,Formation of trehalose crystal,"[2]; water 100, trehalose 182, coexisting saccharide 18 parts by weight, 5° C. (3.7-times solubility)",+
same,Formation of trehalose crystal,"[2]; water 100, trehalose 182, coexisting saccharide 18 parts by weight, 10° C. (3.3-times solubility)",+
same,Formation of trehalose crystal,"[2]; water 100, trehalose 182, coexisting saccharide 18 parts by weight, 15° C. (3.0-times solubility)",+
same,Formation of trehalose crystal,"[2]; water 100, trehalose 182, coexisting saccharide 55 parts by weight, 5° C. (3.7-times solubility)",+
same,Formation of trehalose crystal,"[2]; water 100, trehalose 182, coexisting saccharide 55 parts by weight, 10° C. (3.3-times solubility)",+
same,Formation of trehalose crystal,"[2]; water 100, trehalose 182, coexisting saccharide 55 parts by weight, 15° C. (3.0-times solubility)",+
same,Formation of trehalose crystal,"[2]; water 100, trehalose 182, coexisting saccharide 110 parts by weight, 5° C. (3.7-times solubility)",+
same,Formation of trehalose crystal,"[2]; water 100, trehalose 182, coexisting saccharide 110 parts by weight, 10° C. (3.3-times solubility)",+
same,Formation of trehalose crystal,"[2]; water 100, trehalose 182, coexisting saccharide 110 parts by weight, 15° C. (3.0-times solubility)",+
same,Trehalose crystallization inhibitory effect (in words),[3],specifically and effectively inhibited
